Here are results for five compounds from patent EP4741406A1, “NEUROKININ-1 RECEPTOR ANTAGONIST COMPOUND” (Creadev (Nanjing) Pharmaceutical Technology Co., Ltd., priority 2023, dated 2025).

A short description of series [1]: Liver S9 stability assay (conversion to parent drug). It counts as in vitro ADME. The settings on record: human liver S9 with NADPH, 37 °C. The method, then:
Human pooled liver S9 (Vendor: Xenotech), thawed in a 37°C water bath before use.
Weigh a certain amount of the example compound, dissolve in DMSO to prepare a 10 mM stock solution, then dilute an appropriate volume of the stock solution with DMSO to obtain a 200 µM working solution.
Take 1.5 µL of the 200 µM working solution of the example compound and add it to 238.5 µL of liver S9 working solution, pre-incubate in a 37°C water bath for 5 min; then add 60 µL of NADPH working solution to initiate the reaction and mix by gentle inversion. At the 0 min time point, transfer the above mixture into quenching solution and mix; at the 5, 15, 30, and 60 min time points, transfer the mixture into quenching solution and DMSO and mix. […] Collect the supernatant for LC-MS analysis.

Series [2] in a line: Pharmacokinetic study in crab-eating monkeys, intravenous infusion. The note with it: monkey, 2 mg/kg.
Experimental: Crab-eating monkeys were used as test subjects.
Intravenous infusion was performed over 30 minutes, with a dose of 2 mg/kg, a concentration of 0.4 mg/mL, and a volume of 5 mL/kg.
(§1) Sodium heparin was used as an anticoagulant. Immediately after collection, whole blood proteins were precipitated using methanol:acetonitrile (1:1), and the supernatant was transferred for LC/MS/MS analysis.
Series [3] in a line: Thermodynamic solubility. The settings on record: aqueous buffer, thermodynamic from solid; 100 mM phosphate buffer pH 7.4, room temperature, shaking 16 hours. It counts as physicochemical.
Experimental: 100 mM phosphate buffer solution: Dissolve 7.94 g of K2HPO4.3H2O and 2.07 g of KH2PO4 in 500 mL ultrapure water. Adjust the solution pH to 7.4 with 1 N NaOH, then filter and set aside.
Accurately weigh an appropriate amount of the example compound and add it in small portions to 100 mM phosphate buffer solution to prepare a final concentration of 20 mg/mL. After shaking at room temperature for 16 hours, let stand for 30 min, then filter the supernatant and dilute with DMSO. Add the diluted sample solution to quenching solution, mix thoroughly, and analyze by LC/MS.
Series [4] in a line: Plasma stability assay (conversion to parent drug). Format: in vitro ADME. The note with it: human plasma, 37 °C, 1 µM. The method, then:
Human plasma (Vendor: AoNeng Biotech).
A certain amount of the compound of the examples was weighed and dissolved in DMSO to prepare a 10 mM stock solution. An aliquot of the 10 mM stock solution was diluted with DMSO to obtain a 1600 µM intermediate solution. An aliquot of the 1600 µM intermediate solution was further diluted with 45% methanol to prepare a 16 µM working solution.
• 1) Plasma was pre-incubated in a water bath at 37 °C for 5 min. • 2) 4 µL of the 16 µM working solution of the compound of the examples was added to 60 µL of plasma to give a final compound concentration of 1 µM, and the mixture was gently mixed. • 3) Samples were incubated at each time point (0, 15, 30, 60, and 120 min). After incubation, 192 µL of acetonitrile containing an internal standard was added, followed by shaking on a shaker for 1 min. The mixture was centrifuged at 3700 rpm at 4 °C for 20 min, and the supernatant was collected for LC-MS analysis.

Series [5] in a line: In vivo pharmacokinetic study in rats, intravenous. The settings on record: rat, 2 mg/kg.
Experimental: Rats were used as test subjects. […] This study evaluated the pharmacokinetic behavior of the compounds in rats and assessed their pharmacokinetic characteristics.
Intravenous push injection was performed over approximately 5 minutes, with a dose of 2 mg/kg, a concentration of 0.4 mg/mL, and a volume of 5 mL/kg.
as §1
In series [6] the test system is red blood cell suspension. Kind of series: In vitro human hemolysis assay. It counts as cell-based. The note with it: concentrations as high as 200 µM, 37 °C, 45 minutes.
Experimental: Collect the whole blood and store it in a 250 mL Erlenmeyer flask. Shake at 500 rpm for 10 minutes to remove fibrinogen, producing defibrinated blood. Wash with physiological saline (blood volume: saline volume = 1:4). Centrifuge the blood/saline mixture at 2500 rpm for 15 minutes at 4°C, discard the supernatant. Wash the sedimented red blood cells several times with physiological saline (blood volume: saline volume = 1:4) and centrifuge at 2500 rpm for 15 minutes until the supernatant is no longer red. Prepare a red blood cell suspension using physiological saline at a ratio of 1:49 (cell volume: saline volume) and store at 4°C until use.
Observe for aggregation every 15 minutes. • 3) Centrifuge the resulting solution at 4000 rpm for 15 minutes at 4°C. Transfer 100 µL of the supernatant and measure absorbance at 540 nm to calculate the hemolysis rate (%).
Where [7] appears, read: time point 0 min, parent drug = Lorapiprant.

In brackets after ≈: the same amount, converted by molar mass.

In the case of `C[C@@H](OC[C@@]1(c2ccccc2)CC[C@]2(CCC(=O)N2)CN1C(=O)OCSSCCC(=O)O)c1cc(C(F)(F)F)cc(C(F)(F)F)c1` [Example 33], the Parent drug% came to 13.2% in series [1] (setting [7]); 22.5% in series [1] (time point 5 min); 41.9% in series [1] (time point 15 min); 50.0% in series [1] (time point 30 min); 57.3% in series [1] (time point 60 min).

For orientation: AUC(0-t) means exposure summed from dosing to a finite time, without extrapolation to infinity. Low readings indicate less exposure, high ones more exposure. As a reminder, the Cmax is the maximum level reached in the sampled fluid or tissue. Broadly, the Tmax is the time at which the peak concentration occurs. What is called half-life is the time needed for the level to fall by half in the phase considered. A high value points to slow loss. The term solubility denotes the concentration that dissolves in the medium under given conditions. High values mean much dissolved substance, low ones little dissolved substance. Broadly, the MRT inf is a mean duration of stay, worked out from the concentration-time curve. On to `C[C@@H](OC[C@@]1(c2ccccc2)CC[C@]2(CCC(=O)N2)CN1C(=O)OCSSCCS(=O)(=O)O)c1cc(C(F)(F)F)cc(C(F)(F)F)c1` [Example 42], for which the Parent drug% is 34.8% in series [1] (setting [7]); 40.6% in series [1] (time point 5 min); 48.5% in series [1] (time point 15 min); 51.9% in series [1] (time point 30 min); 44.0% in series [1] (time point 60 min); 6.09% in series [4] (setting [7]). The Parent drug% in series [4] (time point 15 min) was 52.71%; in series [4] (time point 30 min) it was 60.94%; in series [4] (time point 60 min), 53.88%; in series [4] (time point 120 min), 66.59%. The area under the curve AUC(0-t) in series [2] (in vivo) was 528 ng·h/mL; in series [5] (in vivo), 9.42 ng·h/mL. For the same compound, the Cmax in series [2] (in vivo) is 1620 ng/mL; in series [5] (in vivo) it was 61.2 ng/mL. Besides, the Tmax came out at 30 min in series [2] (in vivo) and 5 min in series [5] (in vivo). Also, the values for the half-life in series [2] (in vivo) and in series [5] (in vivo) were 6.06 min and 4.66 min, respectively. This compound also showed a solubility at 16 h in series [3] of 13.2 mg/mL (≈ 18.1 mM). For the same compound, the mean residence time MRT inf in series [5] (in vivo) amounted to 5.45 min.

As for `C[C@@H](OC[C@@]1(c2ccccc2)CC[C@]2(CCC(=O)N2)CN1C(=O)OCSSCCCOS(=O)(=O)O)c1cc(C(F)(F)F)cc(C(F)(F)F)c1` [Example 39], the hemolytic activity result in series [6] is listed as “no hemolytic activity”. Also, the solubility at 16 h in series [3] was found to be 6.54 mg/mL (≈ 8.6 mM). Further, in series [5] (whole blood), the area under the curve AUC(0-t) worked out at 19.9 ng·h/mL, the highest concentration (Cmax) came to 116 ng/mL, the MRT inf was determined as 7.56 min and the Tmax came out at 5 min. Further, the half-life in series [5] (whole blood) is 8.34 min.

With `C[C@@H](OC[C@@]1(c2ccccc2)CC[C@]2(CCC(=O)N2)CN1C(=O)OCOP(=O)(O)O)c1cc(C(F)(F)F)cc(C(F)(F)F)c1` [Compound of formula (I), reference compound], in series [2] (whole blood), the exposure AUC(0-t) turned out to be 688 ng·h/mL, the concentration peaked (Cmax) at 2110 ng/mL, the time to peak (Tmax) was 30 min and the half-life is 9.06 min. Moreover, in series [5] (whole blood), the exposure AUC(0-t) worked out at 82.6 ng·h/mL, the Cmax was determined as 328 ng/mL, the MRT inf came out at 21 min and the time to peak (Tmax) was 5 min. This compound also had a half-life in series [5] (whole blood) of 26.3 min.

On to `C[C@@H](OC[C@@]1(c2ccccc2)CC[C@]2(CCC(=O)N2)CN1C(=O)OCSSCCOCCOCCOCCC(=O)O)c1cc(C(F)(F)F)cc(C(F)(F)F)c1` [Example 47], for which the solubility at 16 h in series [3] amounted to 10.9 mg/mL (≈ 13.2 mM).
